{"source": "patent US8357701B2", "about": "“Galactokinase inhibitors” (University of Miami, priority 2007, dated 2013)", "type_in_all_cases": "biochemical", "key": {"[1]": {"target": "T1, human galactokinase (GALK) (Homo sapiens, UniProt P51570)", "T1 construct": "made in house; host or cells: Escherichia coli HMS174 (DE3), plasmid pET15b", "T1 sequence (P51570 whole entry)": "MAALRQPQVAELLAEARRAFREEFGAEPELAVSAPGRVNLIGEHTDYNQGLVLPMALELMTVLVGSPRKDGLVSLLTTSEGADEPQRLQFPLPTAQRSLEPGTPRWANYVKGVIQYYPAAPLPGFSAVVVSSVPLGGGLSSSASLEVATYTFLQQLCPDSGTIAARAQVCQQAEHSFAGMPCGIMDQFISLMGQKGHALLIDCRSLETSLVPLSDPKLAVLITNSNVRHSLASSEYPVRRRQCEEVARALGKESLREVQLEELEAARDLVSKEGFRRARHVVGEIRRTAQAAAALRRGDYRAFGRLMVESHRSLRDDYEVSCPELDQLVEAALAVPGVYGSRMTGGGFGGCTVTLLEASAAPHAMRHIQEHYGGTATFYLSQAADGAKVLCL", "test": "two-step luminescence-based (Kinase-Glo) high-throughput GALK assay", "conditions": "ATP-γ-S from 0 to 13.3 μM, ATP constant at 5 μM; FIG. 3C", "protocol": "Using the Kinase-Glo™ reagent (Promega, Madison, Wis.), a miniaturized, two-step HTS assay for GALK was developed. […] After 60 minutes at room temperature (22° C.), 30 μL of Kinase Glo™ (Promega) was added, and luminescence was measured within 30 min using an Envision Multilabel Plate Reader (Perkin Elmer). In the course of 12 days, nearly 50,000 compounds from various libraries of small molecules with diverse structural scaffolds were screened for their inhibitory properties of GALK activity in vitro. […] The reaction was then allowed to proceed at room temperature (22° C.) for 60 min. Then, 30 μL of Kinase-Glo™ was added to stop the reaction, and luminescence was measured 15 to 30 min later using the Envision Multilabel Plate Reader (PerkinElmer). 50,000 small molecules were screened, in duplicate, for inhibitory properties against purified GALK. […] In short, duplicate luminescence measurements were corrected for background measurements using the method described by Seiler et al. (Nucl. Acids Res 2007). […] After 60 min at room temperature (22° C.), 30 μL of Kinase-Glo™ was added, and luminescence was measured within 30 min using an Envision Multilabel Plate Reader (PerkinElmer, Waltham, Mass.). […] Then, 30 μl of Kinase-Glo™ was added to stop the reaction, and luminescence was measured 15 to 30 min later using the Envision Multilabel Plate Reader (PerkinElmer). […]"}, "[2]": {"target": "T2, human GALK (Homo sapiens, UniProt P51570)", "T2 construct": "made in house; host or cells: Escherichia coli HMS174 (DE3), plasmid pET15b", "T2 sequence (P51570 whole entry)": "as above", "test": "standard pyruvate kinase/lactate dehydrogenase-coupled GALK assay", "conditions": "dose response, FIG. 7; values somewhat lower than in the luminescence assay; no numbers given", "text": "As the percentage of substrate conversion can have significant impact on the accuracy of IC50 determination, the preferred approach is to determine reaction rates at initial velocity (i.e., zero substrate conversion). […] In this assay, the amount of galactose present in the reaction is kept in excess, whereas ATP consumed by the galactokinase reaction is recycled by the pyruvate kinase reaction.\nAs the percentage of substrate conversion can have significant impact on the accuracy of IC50 determination, the preferred approach is to determine reaction rates at initial velocity (i.e., zero substrate conversion). […] The dose response of the selected compounds was analyzed using the standard pyruvate kinase/lactate dehydrogenase-Coupled assay. In this assay, the amount of galactose present in the reaction was kept in excess, whereas ATP consumed by the galactokinase reaction was recycled by the pyruvate kinase reaction."}, "[3]": {"target": "T3, purified recombinant E. coli CDP-ME kinase (Escherichia coli, UniProt P62615)", "T3 construct": "made in house; host or cells: E. coli HMS174", "T3 sequence (P62615 1-283)": "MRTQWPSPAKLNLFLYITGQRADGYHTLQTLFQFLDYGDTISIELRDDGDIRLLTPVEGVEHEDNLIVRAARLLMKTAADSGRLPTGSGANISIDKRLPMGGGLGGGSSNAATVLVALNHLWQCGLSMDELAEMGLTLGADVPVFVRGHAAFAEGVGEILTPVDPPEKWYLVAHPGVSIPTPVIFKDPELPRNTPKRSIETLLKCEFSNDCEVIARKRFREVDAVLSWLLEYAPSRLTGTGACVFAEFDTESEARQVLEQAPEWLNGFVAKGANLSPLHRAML", "test": "CDP-ME kinase assay (luminescence-based)", "conditions": "CDP-ME as substrate; increasing compound concentration; FIG. 10B", "quoted_text": "Detailed Protocol for CDP-ME Kinase Assay\nProtocol: Mix I was prepared using 1 microL for MVK. If dilutions are to be made, dilute in 1× buffer to 1 microL. Mix II was prepared just before use, as CMP-ME and ATP may deteriorate. Final CMP-ME concentration was chosen at 50 microM for the sake of economics and kept on ice until it was dispensed.\nAt least 4 replicates per condition were used in the experiment. Mix I was dispensed on the plate with a pipette. Mix II was then added and the plate covered with foil. The plates was incubated at 37° C. for 15 minutes and Kinase-Glo® (Promega, Madison Wis.) was added, the plate covered with foil, and incubated at RT for 15 minutes. Measurements were taken as described for the GALK protocol, the data were plotted and the enzyme concentration with reading within linear range just above baseline was selected.\nProtocol to test for inhibition: Compound stored at −80° C. was slowly thawed. Stock was at 10 mM concentration.\nThese were incubated for 1 hour with MVK. Each dilution was then be pipetted into wells (40 microL each). 20 microL of Mix II was added to each well and covered with foil. The plates were incubated at 37° C., for 15 minutes, then Kinase-Glo® (Promega, Madison, Wis.) was added, plates were covered with foil, and incubated at room temperature (RT) for 15 minutes. The data was plotted and the IC50 was calculated."}}}
{"smiles": "Nc1ncnc2c1ncn2[C@@H]1O[C@H](COP(=O)(O)OP(=O)(O)OP(O)(O)=S)[C@@H](O)[C@H]1O", "note": "[ATP-γ-S, adenosine 5′-O-(3-thio-)triphosphate]", "values": [{"measurement": "inhibition of GALK activity by ATP mimetic", "setting": "[1]", "value": "acted as a GALK inhibitor"}]}
{"smiles": "CC(C)(C)C(=O)Nc1ccc2c(c1)C(=O)C(=O)c1ccccc1-2", "note": "[compound 1, Tyrosine Phosphatase CD45 inhibitor]", "values": [{"measurement": "IC50 values confirmed in coupled assay", "setting": "[2]", "value": "confirmed"}]}
{"smiles": "CC1(c2ccccc2)CC(C)(C)N2C(=O)/C(=C3/SC(=O)NC3=O)c3cccc1c32", "note": "(stereo not drawn) [compound 3]", "values": [{"measurement": "IC50 values confirmed in coupled assay", "setting": "[2]", "value": "confirmed"}]}
{"smiles": "Oc1c(Cl)cc(Cl)c(Cl)c1Cc1c(O)c(Cl)cc(Cl)c1Cl", "note": "[compound 9, Hexachlorophene]", "values": [{"measurement": "inhibition of E. coli CDP-ME kinase", "setting": "[3]", "value": "inhibits E. coli CDP-ME kinase"}, {"measurement": "IC50 values confirmed in coupled assay", "setting": "[2]", "value": "confirmed"}]}
{"smiles": "COC1=C(N)C(=O)c2nc(-c3nc(C(=O)O)c(C)c(-c4ccc(OC)c(OC)c4O)c3N)ccc2C1=O", "note": "[compound 24, Streptonigrin]", "values": [{"measurement": "IC50 values confirmed in coupled assay", "setting": "[2]", "value": "confirmed"}]}
